{"source": "patent US20250032485A1", "about": "“APPLICATION OF IMIDAZO [1,2-A] PYRAZINE COMPOUNDS OR THEIR PHARMACEUTICALLY ACCEPTABLE SALTS IN THE PREPARATION OF ANTI-CORONAVIRUS DRUGS” (GUANGZHOU MEDICAL UNIVERSITY, priority 2023, published 2025)", "biological_target": "PLpro of SARS-CoV-2 (Severe acute respiratory syndrome coronavirus 2, UniProt P0DTD1)", "test": "Enzyme activity test in vitro: inhibition of PLpro at fixed concentration 50 μM (RLRGG-AMC substrate)", "format": "biochemical", "settings": "read-out: Inhibition rate at 50 μM (%)"}
{"smiles": "O=C(O)c1cccc(Nc2c(-c3ccc(F)cc3)nc3cnccn23)c1", "note": "[P19477, 3-[[2-(4-fluorophenyl)imidazo[1,2-a]pyrazin-3-yl]amino] benzoic acid]", "values": [{"measurement": "inhibition at 50 µM", "result": 5.91, "unit": "%"}]}
{"smiles": "O=C(O)c1cccc(Nc2c(-c3ccc(O)cc3)nc3cnccn23)c1", "note": "[P19496, 3-[[2-(4-hydroxy-phenyl)imidazo[1,2-a]pyrazin-3-yl]amino] benzoic acid]", "values": [{"measurement": "inhibition at 50 µM", "result": 40.5, "unit": "%"}]}
{"smiles": "COC(=O)c1cccc(Nc2c(-c3ccc(Cl)cc3)nc3cnccn23)c1", "note": "[P37337, methyl 3-[[2-(4-chlorophenyl)imidazo[1,2-a]pyrazin-3-yl]amino] benzoate]", "values": [{"measurement": "inhibition at 50 µM", "result": 23, "unit": "%"}]}
{"smiles": "CCOC(=O)c1ccc(Nc2c(-c3ccc(Cl)cc3)nc3cnccn23)cc1", "note": "[P22492, ethyl 4-[[2-(4-chlorophenyl)imidazo[1,2-a]pyrazin-3-yl]amino] benzoate]", "values": [{"measurement": "inhibition at 50 µM", "result": 29.5, "unit": "%"}]}
{"smiles": "CNC(=O)c1ccc(Nc2c(-c3ccc(OC)cc3)nc3cnccn23)cc1", "note": "[P19472, 4-[[2-(4-methoxy-phenyl)imidazo[1,2-a]pyrazin-3-yl]amino]-N-methylbenzamide]", "values": [{"measurement": "inhibition at 50 µM", "result": 28.1, "unit": "%"}]}
{"smiles": "CN(C)CCNC(=O)c1ccc(Nc2c(-c3ccccc3)nc3cnccn23)cc1", "note": "[P22433, N-[2-(dimethylamino)ethyl]-4-[(2-phenyl-imidazo[1,2-a]pyrazin-3-yl)amino] benzamide]", "values": [{"measurement": "inhibition at 50 µM", "result": 30.5, "unit": "%"}]}
{"smiles": "COC(=O)c1ccc(-c2nc3cnccn3c2Nc2ccc(OC)cc2)cc1", "note": "[P28376, methyl 4-[3-(4-methoxy-anilino)imidazo[1,2-a]pyrazin-2-yl]benzoate]", "values": [{"measurement": "inhibition at 50 µM", "result": 28.5, "unit": "%"}]}
{"smiles": "Cc1ccc(-c2nc3cnccn3c2Nc2ccc(C(=O)NC(C)C)cc2)cc1", "note": "[P22452, 4-[[2-(4-methylphenyl)imidazo[1,2-a]pyrazin-3-yl]amino]-N-propan-2-ylbenzamide]", "values": [{"measurement": "inhibition at 50 µM", "result": 33.6, "unit": "%"}]}
{"smiles": "COC(=O)c1ccc(-c2nc3cnccn3c2NC2CCCCC2)cc1", "note": "[P24359, methyl 4-[3-(cyclohexylamino)imidazo[1,2-a]pyrazin-2-yl]benzoate]", "values": [{"measurement": "inhibition at 50 µM", "result": 37.1, "unit": "%"}]}
{"smiles": "Cc1ccc(-c2nc3cnccn3c2Nc2ccc(C(=O)NCc3ccco3)cc2)cc1", "note": "[P22455, N-(furan-2-ylmethyl)-4-[[2-(4-methyl-phenyl)imidazo[1,2-a]pyrazin-3-yl]amino] benzamide]", "values": [{"measurement": "inhibition at 50 µM", "result": 40.1, "unit": "%"}]}
{"smiles": "COC(=O)c1ccc(-c2nc3cnccn3c2Nc2ccc(OC)c(OC)c2)cc1", "note": "[P22491, methyl 4-[3-(3,4-dimethoxy-anilino)imidazo[1,2-a]pyrazin-2-yl] benzoate]", "values": [{"measurement": "inhibition at 50 µM", "result": 22.4, "unit": "%"}]}
{"smiles": "COC(=O)c1cccc(Nc2c(-c3ccc(OC)cc3)nc3cnccn23)c1", "note": "[P19485, methyl 3-[[2-(4-methoxy-phenyl)imidazo[1,2-a]pyrazin-3-yl]amino] benzoate]", "values": [{"measurement": "inhibition at 50 µM", "result": 36, "unit": "%"}]}
{"smiles": "CN(C)c1ccc(-c2nc3cnccn3c2Nc2cccc(C(=O)O)c2)cc1", "note": "[P19447, 3-[[2-[4-(dimethyl-amino)phenyl]imidazo [1,2-a]pyrazin-3-yl]amino]benzoic acid]", "values": [{"measurement": "inhibition at 50 µM", "result": 42.1, "unit": "%"}]}
{"smiles": "Cc1cccc(C)c1Nc1c(-c2ccccc2)nc2cnccn12", "note": "[P32333, N-(2,6-dimethylphenyl)-2-phenylimidazo [1,2-a]pyrazin-3-amine]", "values": [{"measurement": "inhibition at 50 µM", "result": 35.8, "unit": "%"}]}
{"smiles": "CSc1ccc(-c2nc3cnccn3c2Nc2cccc(C(=O)NC3CCCCC3)c2)cc1", "note": "[P22448, N-cyclohexyl-3-[[2-(4-methylsulfanyl-phenyl)imidazo[1,2-a]pyrazin-3-yl]amino] benzamide]", "values": [{"measurement": "inhibition at 50 µM", "result": 26.9, "unit": "%"}]}
{"smiles": "COC(=O)c1ccc(-c2nc3cnccn3c2Nc2cccc(C(=O)OC)c2)cc1", "note": "[P19494, methyl 3-[[2-(4-methoxy-carbonylphenyl)imidazo [1,2-a]pyrazin-3-yl]amino]benzoate]", "values": [{"measurement": "inhibition at 50 µM", "result": 25.4, "unit": "%"}]}
{"smiles": "Cc1ccc(-c2nc3cnccn3c2Nc2cccc(C(=O)O)c2)cc1", "note": "[P37308, 3-[[2-(4-methyl-phenyl)imidazo[1,2-a]pyrazin-3-yl]amino] benzoic acid]", "values": [{"measurement": "inhibition at 50 µM", "result": 20.8, "unit": "%"}]}
{"smiles": "CC(C)NC(=O)c1ccc(Nc2c(-c3ccc(Cl)cc3)nc3cnccn23)cc1", "note": "[P22442, 4-[[2-(4-chlorophenyl)imidazo[1,2-a]pyrazin-3-yl]amino]-N-propan-2-ylbenzamide]", "values": [{"measurement": "inhibition at 50 µM", "result": 37.1, "unit": "%"}]}
{"smiles": "Cc1ccc(-c2nc3cnccn3c2Nc2ccc(C(=O)O)cc2)cc1", "note": "[P19465, 4-[[2-(4-methyl-phenyl)imidazo[1,2-a]pyrazin-3-yl]amino] benzoic acid]", "values": [{"measurement": "inhibition at 50 µM", "result": 15.9, "unit": "%"}]}
{"smiles": "O=C(O)c1cccc(Nc2c(-c3cccc(O)c3)nc3cnccn23)c1", "note": "[P37338, 3-[[2-(3-hydroxy-phenyl)imidazo[1,2-a]pyrazin-3-yl]amino] benzoic acid]", "values": [{"measurement": "inhibition at 50 µM", "result": 11.7, "unit": "%"}]}
{"smiles": "COC(=O)c1ccc(-c2nc3cnccn3c2Nc2ccc3c(c2)OCCO3)cc1", "note": "[P24862, methyl 4-[3-(2,3-dihydro-1,4-benzodioxin-6-ylamino)imidazo[1,2-a]pyrazin-2-yl] benzoate]", "values": [{"measurement": "inhibition at 50 µM", "result": 30.1, "unit": "%"}]}
{"smiles": "CCOC(=O)c1ccc(Nc2c(-c3ccc(SC)cc3)nc3cnccn23)cc1", "note": "[P22541, ethyl 4-[[2-(4-methyl-sulfanylphenyl)imidazo [1,2-a]pyrazin-3-yl]amino]benzoate]", "values": [{"measurement": "inhibition at 50 µM", "result": 33.8, "unit": "%"}]}
{"smiles": "O=C(NCC1CCCO1)c1cccc(Nc2c(-c3ccc(Cl)cc3)nc3cnccn23)c1", "note": "(stereo not shown) [P22408, 3-[[2-(4-chlorophenyl)imidazo[1,2-a]pyrazin-3-yl]amino]-N-(oxolan-2-ylmethyl)benzamide]", "values": [{"measurement": "inhibition at 50 µM", "result": 17.3, "unit": "%"}]}
{"smiles": "CCc1cccc(C)c1Nc1c(-c2ccc(OC)c(OC)c2)nc2cnccn12", "note": "[P19513, 2-(3,4-dimethoxy-phenyl)-N-(2-ethyl-6-methylphenyl)imidazo [1,2-a]pyrazin-3-amine]", "values": [{"measurement": "inhibition at 50 µM", "result": 38.8, "unit": "%"}]}
{"smiles": "O=C(NCc1ccco1)c1cccc(Nc2c(-c3ccccc3)nc3cnccn23)c1", "note": "[P22449, N-(furan-2-ylmethyl)-3-[(2-phenylimidazo [1,2-a]pyrazin-3-yl)amino]benzamide]", "values": [{"measurement": "inhibition at 50 µM", "result": 27.5, "unit": "%"}]}
{"smiles": "O=C(NCCN1CCOCC1)c1cccc(Nc2c(-c3ccc(Cl)cc3)nc3cnccn23)c1", "note": "[P22447, 3-[[2-(4-chlorophenyl)imidazo[1,2-a]pyrazin-3-yl]amino]-N-(2-morpholin-4-ylethyl)benzamide]", "values": [{"measurement": "inhibition at 50 µM", "result": 41.9, "unit": "%"}]}
{"smiles": "CCOC(=O)c1ccc(Nc2c(-c3ccc(C)cc3)nc3cnccn23)cc1", "note": "[P22482, ethyl 4-[[2-(4-methylphenyl)imidazo[1,2-a]pyrazin-3-yl]amino] benzoate]", "values": [{"measurement": "inhibition at 50 µM", "result": 22.2, "unit": "%"}]}
{"smiles": "CSc1ccc(-c2nc3cnccn3c2Nc2cccc(C(=O)NC(C)C)c2)cc1", "note": "[P22417, 3-[[2-(4-methyl-sulfanylphenyl)imidazo [1,2-a]pyrazin-3-yl]amino]-N-propan-2-ylbenzamide]", "values": [{"measurement": "inhibition at 50 µM", "result": 43.4, "unit": "%"}]}
{"smiles": "O=C(O)c1cccc(Nc2c(-c3ccccc3)nc3cnccn23)c1", "note": "[P19497, 3-[(2-phenylimidazo [1,2-a]pyrazin-3-yl)amino]benzoic acid]", "values": [{"measurement": "inhibition at 50 µM", "result": 31.2, "unit": "%"}]}
{"smiles": "Cc1ccc(-c2nc3cnccn3c2Nc2ccc(C(=O)N3CCCCC3)cc2)cc1", "note": "[P22464, [4-[[2-(4-methyl-phenyl)imidazo[1,2-a]pyrazin-3-yl]amino]phenyl]-piperidin-1-ylmethanone]", "values": [{"measurement": "inhibition at 50 µM", "result": 29.6, "unit": "%"}]}
{"smiles": "CCc1cccc(C)c1Nc1c(-c2ccc(C(=O)OC)cc2)nc2cnccn12", "note": "[P36232, methyl 4-[3-(2-ethyl-6-methylanilino)imidazo [1,2-a]pyrazin-2-yl]benzoate]", "values": [{"measurement": "inhibition at 50 µM", "result": 20.3, "unit": "%"}]}
{"smiles": "COc1ccc(-c2nc3cnccn3c2Nc2cccc(C(=O)NCc3ccco3)c2)cc1", "note": "[P22459, N-(furan-2-ylmethyl)-3-[[2-(4-methoxy-phenyl)imidazo[1,2-a]pyrazin-3-yl]amino]benzamide]", "values": [{"measurement": "inhibition at 50 µM", "result": 35.4, "unit": "%"}]}
{"smiles": "CCNC(=O)c1ccc(-c2nc3cnccn3c2Nc2c(C)cccc2CC)cc1", "note": "[P22511, N-ethyl-4-[3-(2-ethyl-6-methylanilino)imidazo[1,2-a]pyrazin-2-yl]benzamide]", "values": [{"measurement": "inhibition at 50 µM", "result": 27.7, "unit": "%"}]}
{"smiles": "O=C(O)c1ccc(Nc2c(-c3ccc(N4CCOCC4)cc3)nc3cnccn23)cc1", "note": "[P24813, 4-[[2-(4-morpholin-4-ylphenyl)imidazo [1,2-a]pyrazin-3-yl]amino]benzoic acid]", "values": [{"measurement": "inhibition at 50 µM", "result": 31.9, "unit": "%"}]}
{"smiles": "CCOC(=O)c1ccc(Nc2c(-c3ccc(O)c(OC)c3)nc3cnccn23)cc1", "note": "[P22551, ethyl 4-[[2-(4-hydroxy-3-methoxyphenyl)imidazo[1,2-a]pyrazin-3-yl]amino]benzoate]", "values": [{"measurement": "inhibition at 50 µM", "result": 21, "unit": "%"}]}
{"smiles": "O=C(NCCN1CCOCC1)c1cccc(Nc2c(-c3ccccc3)nc3cnccn23)c1", "note": "[P22427, N-[2-(1,4-oxazinan-4-yl)ethyl]-3-[(2-phenylimidazo[1,2-a]pyrazin-3-yl)amino] benzamide]", "values": [{"measurement": "inhibition at 50 µM", "result": 22.8, "unit": "%"}]}
{"smiles": "CNC(=O)c1cccc(Nc2c(-c3ccccc3)nc3cnccn23)c1", "note": "[P22416, N-methyl-3-[(2-phenylimidazo[1,2-a]pyrazin-3-yl)amino] benzamide]", "values": [{"measurement": "inhibition at 50 µM", "result": 30.2, "unit": "%"}]}
{"smiles": "NC(=O)c1cccc(Nc2c(-c3ccc(Cl)cc3)nc3cnccn23)c1", "note": "[P19492, 3-[[2-(4-chlorophenyl)imidazo[1,2-a]pyrazin-3-yl]amino] benzamide]", "values": [{"measurement": "inhibition at 50 µM", "result": 35.4, "unit": "%"}]}
{"smiles": "CCOC(=O)c1ccc(Nc2c(-c3ccccc3)nc3cnccn23)cc1", "note": "[P22483, ethyl 4-[(2-phenylimidazo [1,2-a]pyrazin-3-yl)amino]benzoate]", "values": [{"measurement": "inhibition at 50 µM", "result": 29.4, "unit": "%"}]}
{"smiles": "O=C(c1cccc(Nc2c(-c3ccc(Cl)cc3)nc3cnccn23)c1)N1CCCCC1", "note": "[P22468, [3-[[2-(4-chlorophenyl)imidazo[1,2-a]pyrazin-3-yl]amino]phenyl]-piperidin-1-ylmethanone]", "values": [{"measurement": "inhibition at 50 µM", "result": 29, "unit": "%"}]}
{"smiles": "COc1ccc(-c2nc3cnccn3c2Nc2ccc(C(=O)NC3CCCCC3)cc2)cc1OC", "note": "[P22450, N-cyclohexyl-4-[[2-(3,4-dimethoxyphenyl)imidazo[1,2-a]pyrazin-3-yl]amino] benzamide]", "values": [{"measurement": "inhibition at 50 µM", "result": 20.8, "unit": "%"}]}
{"smiles": "CSc1ccc(-c2nc3cnccn3c2Nc2cccc(C(=O)N3CCCCC3)c2)cc1", "note": "[P22478, [3-[[2-(4-methyl-sulfanylphenyl)imidazo [1,2-a]pyrazin-3-yl]amino]phenyl]-piperidin-1-ylmethanone]", "values": [{"measurement": "inhibition at 50 µM", "result": 43.9, "unit": "%"}]}
{"smiles": "CCc1cccc(C)c1Nc1c(-c2ccc(N)cc2)nc2cnccn12", "note": "[P37348, 2-(4-aminophenyl)-N-(2-ethyl-6-methyl-phenyl)imidazo[1,2-a]pyrazin-3-amine]", "values": [{"measurement": "inhibition at 50 µM", "result": 16, "unit": "%"}]}
